# Results published in ChEMBL document CHEMBL1201862, “PubChem BioAssay data set” (2004).
#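 Dose response: 5 concentrations. Exposure: 48 h. Format: 96-well plates. Endpoint: linear interpolation; highest concentration if not reached. GI50: concentration for 50% inhibition of growth.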 Activity calls are given as the source filed them. Rule as the data show it: active = GI50 up to about 1.1 µM and inactive = higher.
# Tests used:
# Assay in all cases: NCI anticancer screen, dose series, 48 h
# [1] = tested on: Malme-3M
# [2] = tested on: T47D
# [3] = tested on: 786-0
# [4] = tested on: Hs-578T
# [5] = tested on: SK-MEL-28
# [6] = tested on: OVCAR-5
# [7] = tested on: KM12
# [8] = tested on: BT-549
# [9] = tested on: HCC 2998
# [10] = tested on: UACC-257
# [11] = tested on: A549
# [12] = tested on: HL-60
# [13] = tested on: HCT-15
# [14] = tested on: M14
# [15] = tested on: SK-MEL-2
# [16] = tested on: OVCAR-4
# [17] = tested on: MOLT-4
# [18] = tested on: SNB-75
# [19] = tested on: SK-MEL-5
# [20] = tested on: PC-3
# [21] = tested on: NCI-H226
# [22] = tested on: SF-539
# [23] = tested on: LOX IMVI
# [24] = tested on: K562
# [25] = tested on: HCT-116
# [26] = tested on: SF-295
# [27] = tested on: OVCAR-8
# [28] = tested on: A498
# [29] = tested on: SN12C
# [30] = tested on: MDA-MB-435
# [31] = tested on: SW-620
# [32] = tested on: MCF7
# [33] = tested on: SNB-19
# [34] = tested on: RXF 393
# [35] = tested on: TK-10
# [36] = tested on: CAKI-1
# [37] = tested on: UO-31
# [38] = tested on: DU-145
# [39] = tested on: NCI-H460
# [40] = tested on: EKVX
# [41] = tested on: ACHN
# [42] = tested on: SF-268
# [43] = tested on: HT-29
# [44] = tested on: NCI/ADR-RES
# [45] = tested on: MDA-N
# [46] = tested on: OVCAR-3
# [47] = tested on: SK-OV-3
# [48] = tested on: NCI-H23
# [49] = tested on: UACC-62
# [50] = tested on: HOP-92
# [51] = tested on: MDA-MB-231
# [52] = tested on: CCRF-CEM
# [53] = tested on: IGROV-1
# [54] = tested on: U-251
# [55] = tested on: COLO 205
# [56] = tested on: HOP-62
# [57] = tested on: RPMI-8226
smiles,measurement,setting,value
CC12CC(C#N)(C#N)C(C#N)(CO1)C(=N)O2 (stereo not drawn),GI50,[1],24.2 µM (inactive)
same,GI50,[2],> 100 µM (inactive)
same,GI50,[3],> 100 µM (inactive)
same,GI50,[4],27.7 µM (inactive)
same,GI50,[5],> 100 µM (inactive)
same,GI50,[6],> 100 µM (inactive)
same,GI50,[7],> 100 µM (inactive)
same,GI50,[8],> 100 µM (inactive)
same,GI50,[9],> 100 µM (inactive)
same,GI50,[10],> 100 µM (inactive)
same,GI50,[11],> 100 µM (inactive)
same,GI50,[12],44.2 µM (inactive)
same,GI50,[13],40.6 µM
same,GI50,[14],> 100 µM (inactive)
same,GI50,[15],> 100 µM (inactive)
same,GI50,[16],> 100 µM (inactive)
same,GI50,[17],54.3 µM (inactive)
same,GI50,[18],> 100 µM (inactive)
same,GI50,[19],> 100 µM (inactive)
same,GI50,[20],> 100 µM (inactive)
same,GI50,[21],> 100 µM (inactive)
same,GI50,[22],> 100 µM (inactive)
same,GI50,[23],49.3 µM (inactive)
same,GI50,[24],75.7 µM (inactive)
same,GI50,[25],64.3 µM (inactive)
same,GI50,[26],> 100 µM (inactive)
same,GI50,[27],> 100 µM (inactive)
same,GI50,[28],> 100 µM (inactive)
same,GI50,[29],> 100 µM (inactive)
same,GI50,[30],> 100 µM (inactive)
same,GI50,[31],53.6 µM (inactive)
same,GI50,[32],> 100 µM (inactive)
same,GI50,[33],> 100 µM (inactive)
same,GI50,[34],59.7 µM (inactive)
same,GI50,[35],> 100 µM (inactive)
same,GI50,[36],31.8 µM (inactive)
same,GI50,[37],> 100 µM (inactive)
same,GI50,[38],> 100 µM (inactive)
same,GI50,[39],63.7 µM (inactive)
same,GI50,[40],> 100 µM (inactive)
same,GI50,[41],> 100 µM (inactive)
same,GI50,[42],> 100 µM (inactive)
same,GI50,[43],69.2 µM (inactive)
same,GI50,[44],71.1 µM (inactive)
same,GI50,[45],> 100 µM (inactive)
same,GI50,[46],> 100 µM (inactive)
same,GI50,[47],> 100 µM (inactive)
same,GI50,[48],> 100 µM (inactive)
same,GI50,[49],24.9 µM (inactive)
same,GI50,[50],52.7 µM (inactive)
same,GI50,[51],> 100 µM (inactive)
same,GI50,[52],26.9 µM (inactive)
same,GI50,[53],> 100 µM (inactive)
same,GI50,[54],> 100 µM (inactive)
same,GI50,[55],37.8 µM (inactive)
COC1=CC(=O)C2=C(C[C@@]3(C)C(=C2)C(CO)=CC[C@H]3O)C1=O,GI50,[1],34.2 µM (inactive)
same,GI50,[2],24.6 µM (inactive)
same,GI50,[3],20.7 µM (inactive)
same,GI50,[4],30.9 µM (inactive)
same,GI50,[5],29.6 µM (inactive)
same,GI50,[6],27 µM (inactive)
same,GI50,[7],31.4 µM (inactive)
same,GI50,[8],19.2 µM (inactive)
same,GI50,[9],36.5 µM (inactive)
same,GI50,[10],18.6 µM (inactive)
same,GI50,[11],33.7 µM (inactive)
same,GI50,[12],1.79 µM (inactive)
same,GI50,[13],27.5 µM
same,GI50,[14],21.8 µM (inactive)
same,GI50,[16],17.9 µM (inactive)
same,GI50,[17],0.0975 µM (active)
same,GI50,[19],17.4 µM (inactive)
same,GI50,[20],28.2 µM (inactive)
same,GI50,[21],14 µM (inactive)
same,GI50,[22],18.8 µM (inactive)
same,GI50,[23],17.1 µM (inactive)
same,GI50,[24],2.57 µM (inactive)
same,GI50,[25],18.7 µM (inactive)
same,GI50,[56],25.2 µM (inactive)
same,GI50,[26],22 µM (inactive)
same,GI50,[27],18.2 µM (inactive)
same,GI50,[28],> 100 µM (inactive)
same,GI50,[29],17.8 µM (inactive)
same,GI50,[30],20.7 µM (inactive)
same,GI50,[31],25.3 µM (inactive)
same,GI50,[32],16 µM (inactive)
same,GI50,[33],68.1 µM (inactive)
same,GI50,[34],16.4 µM (inactive)
same,GI50,[35],98.2 µM (inactive)
same,GI50,[36],73.3 µM (inactive)
same,GI50,[37],20 µM (inactive)
same,GI50,[38],38.9 µM (inactive)
same,GI50,[39],25.9 µM (inactive)
same,GI50,[40],21.8 µM (inactive)
same,GI50,[41],18.2 µM (inactive)
same,GI50,[42],18.7 µM (inactive)
same,GI50,[43],46.1 µM (inactive)
same,GI50,[44],23.5 µM (inactive)
same,GI50,[45],19 µM (inactive)
same,GI50,[46],24.9 µM (inactive)
same,GI50,[47],88.5 µM (inactive)
same,GI50,[57],18.4 µM (inactive)
same,GI50,[48],20.4 µM (inactive)
same,GI50,[49],17.6 µM (inactive)
same,GI50,[50],11 µM (inactive)
same,GI50,[51],3.86 µM (inactive)
same,GI50,[52],4.04 µM (inactive)
same,GI50,[53],14.6 µM (inactive)
same,GI50,[54],21 µM (inactive)
same,GI50,[55],27.5 µM (inactive)
Cn1c(COC(=O)NC2CCCCC2)c(COC(=O)NC2CCCCC2)c2ccc3cc(C=O)ccc3c21,GI50,[1],> 100 µM (inactive)
same,GI50,[2],> 100 µM (inactive)
same,GI50,[3],83.6 µM (inactive)
same,GI50,[4],35.3 µM (inactive)
same,GI50,[6],> 100 µM (inactive)
same,GI50,[7],> 100 µM (inactive)
same,GI50,[8],> 100 µM (inactive)
same,GI50,[9],> 100 µM (inactive)
same,GI50,[10],> 100 µM (inactive)
same,GI50,[11],> 100 µM (inactive)
same,GI50,[12],38.1 µM (inactive)
same,GI50,[13],> 100 µM
same,GI50,[14],> 100 µM (inactive)
same,GI50,[15],> 100 µM (inactive)
same,GI50,[17],> 100 µM (inactive)
same,GI50,[18],18.6 µM (inactive)
same,GI50,[19],> 100 µM (inactive)
same,GI50,[20],> 100 µM (inactive)
same,GI50,[21],> 100 µM (inactive)
same,GI50,[22],> 100 µM (inactive)
same,GI50,[23],> 100 µM (inactive)
same,GI50,[24],> 100 µM (inactive)
same,GI50,[25],> 100 µM (inactive)
same,GI50,[26],> 100 µM (inactive)
same,GI50,[27],> 100 µM (inactive)
same,GI50,[28],> 100 µM (inactive)
same,GI50,[29],> 100 µM (inactive)
same,GI50,[30],45.7 µM (inactive)
same,GI50,[31],> 100 µM (inactive)
same,GI50,[32],> 100 µM (inactive)
same,GI50,[33],> 100 µM (inactive)
same,GI50,[34],51.1 µM (inactive)
same,GI50,[35],> 100 µM (inactive)
same,GI50,[36],> 100 µM (inactive)
same,GI50,[37],> 100 µM (inactive)
same,GI50,[38],> 100 µM (inactive)
same,GI50,[39],> 10 µM (inactive)
same,GI50,[40],> 100 µM (inactive)
same,GI50,[41],> 100 µM (inactive)
same,GI50,[42],37.5 µM (inactive)
same,GI50,[43],> 100 µM (inactive)
same,GI50,[44],> 100 µM (inactive)
same,GI50,[45],> 100 µM (inactive)
same,GI50,[46],> 100 µM (inactive)
same,GI50,[47],> 100 µM (inactive)
same,GI50,[48],> 100 µM (inactive)
same,GI50,[49],> 100 µM (inactive)
same,GI50,[50],32 µM (inactive)
same,GI50,[51],85.1 µM (inactive)
same,GI50,[52],> 100 µM (inactive)
same,GI50,[53],> 100 µM (inactive)
same,GI50,[54],27.9 µM (inactive)
same,GI50,[55],> 100 µM (inactive)
